Reference: patent US9833497B2, “Human originated EGF domain proteins and use of the same” (CHENGDU SOURCEBIO LIMITED-LIABILITY COMPANY, priority 2013, dated 2017)

Legend:
Assay type in all cases: cell-based
[1] = test system: E. coli DH5α; test: Antibacterial activity: MIC and growth curve against E. coli DH5α in 96-well plate; conditions: minimal inhibitory concentration against E. coli DH5α; 96-well plate, 5×10^5 CFU/mL, 37° C., judged after 8 h
Summary of the method: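 MIC taken as lowest protein level with no bacterial growth, tracked by A600 every 30 min during 37 °C, 175 rpm culture. Two-fold protein series 50-12.5 μg/mL final, triplicate wells, against 5×10^5 CFU/mL of LB-washed mid-log cells.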

[2] = test system: Enterobacter cloacae; test: MIC against Gram-negative bacteria: Enterobacter cloacae; conditions: 5×10^5 CFU/mL
Summary of the method: (§1)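 Growth inhibition by human EGF domain proteins was scored in LB liquid culture seeded at 5×10^5 CFU/mL. Protein was applied as a two-fold dilution series in triplicate, with shaking incubation at 37° C; MIC is the lowest concentration giving no growth.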

[3] = test system: Pseudomonas aeruginosa; test: MIC against Gram-negative bacteria: Pseudomonas aeruginosa; conditions: 5×10^5 CFU/mL
Summary of the method: as §1

[4] = test system: Aeromonas hydrophila; test: MIC against Gram-negative bacteria: Aeromonas hydrophila; conditions: 5×10^5 CFU/mL
Summary of the method: as §1

[5] = test system: Citrobacter diversus; test: MIC against Gram-negative bacteria: Citrobacter diversus; conditions: 5×10^5 CFU/mL
Summary of the method: as §1

[6] = test system: Moraxella catarrhalis; test: MIC against Gram-negative bacteria: Moraxella catarrhalis; conditions: 5×10^5 CFU/mL
Summary of the method: as §1

[7] = test system: E. coli BL21; test: MIC against Gram-negative bacteria: E. coli BL21; conditions: 5×10^5 CFU/mL
Summary of the method: as §1

[8] = test system: Proteus vulgaris; test: MIC against Gram-negative bacteria: Proteus vulgaris; conditions: 5×10^5 CFU/mL
Summary of the method: as §1

[9] = test system: Proteus mirabilis; test: MIC against Gram-negative bacteria: Proteus mirabilis; conditions: 5×10^5 CFU/mL
Summary of the method: as §1

[10] = test system: Klebsiella pneumonia; test: MIC against Gram-negative bacteria: Klebsiella pneumonia; conditions: 5×10^5 CFU/mL
Summary of the method: as §1

[11] = test system: Serratia marcescens; test: MIC against Gram-negative bacteria: Serratia marcescens; conditions: 5×10^5 CFU/mL
Summary of the method: as §1

[12] = 10 h cultivation at 37° C., two-fold serial dilution
[13] = Enterobacter cloacae, 96-well plate, 37° C., 10 h
[14] = Pseudomonas aeruginosa, 96-well plate, 37° C., 10 h
[15] = Aeromonas hydrophila, 96-well plate, 37° C., 10 h
[16] = Citrobacter diversus, 96-well plate, 37° C., 10 h
[17] = Moraxella catarrhalis, 96-well plate, 37° C., 10 h
[18] = E. coli BL21, 96-well plate, 37° C., 10 h
[19] = Proteus vulgaris, 96-well plate, 37° C., 10 h
[20] = Proteus mirabilis, 96-well plate, 37° C., 10 h
[21] = Klebsiella pneumonia, 96-well plate, 37° C., 10 h
[22] = Serratia marcescens, 96-well plate, 37° C., 10 h

PRT1061 (KRDPCLRKYKDFCIHGECKYVKELRAPSCICHPGYHGERCH; listed as Homo sapiens)
25 µg/mL: MIC P. mirabilis [9, 12] | MIC S. marcescens [11, 12]
50 µg/mL: MIC M. catarrhalis [6, 12]
12.5 µg/mL: MIC [1] | MIC E. cloacae [2, 12] | MIC P. aeruginosa [3, 12] | MIC A. hydrophila [4, 12] | MIC C. diversus [5, 12] | MIC E. coli BL21 [7, 12] | MIC P. vulgaris [8, 12] | MIC K. pneumonia [10, 12]

PRT120 (CRPCQNGGLATVEGTHCLCHCKPYTFGAACE; listed as Homo sapiens)
25 µg/mL: MIC (μg/mL) P. vulgaris [8, 19]
100 µg/mL: MIC (μg/mL) M. catarrhalis [6, 17]
12.5 µg/mL: MIC [1] | MIC (μg/mL) E. cloacae [2, 13] | MIC (μg/mL) P. aeruginosa [3, 14] | MIC (μg/mL) A. hydrophila [4, 15] | MIC (μg/mL) C. diversus [5, 16] | MIC (μg/mL) E. coli BL21 [7, 18] | MIC (μg/mL) P. mirabilis [9, 20] | MIC (μg/mL) K. pneumonia [10, 21] | MIC (μg/mL) S. marcescens [11, 22]

PRT474 (QADPCQPNPCEHGGDCLVHGSTFTCSCLAPFSGNKCQ; listed as Homo sapiens)
50 µg/mL: MIC against A. hydrophila ([4]; 96-well plate, 37° C., 10 h) | MIC against M. catarrhalis ([6]; 96-well plate, 37° C., 10 h) | MIC against P. vulgaris ([8]; 96-well plate, 37° C., 10 h)
12.5 µg/mL: MIC [1] | MIC against C. diversus ([5]; 96-well plate, 37° C., 10 h) | MIC against P. mirabilis ([9]; 96-well plate, 37° C., 10 h) | MIC against S. marcescens ([11]; 96-well plate, 37° C., 10 h)
25 µg/mL: MIC against E. cloacae ([2]; 96-well plate, 37° C., 10 h) | MIC against P. aeruginosa ([3]; 96-well plate, 37° C., 10 h) | MIC against E. coli BL21 ([7]; 96-well plate, 37° C., 10 h) | MIC against K. pneumonia ([10]; 96-well plate, 37° C., 10 h)

PRT708 (QYYVCHHYCVNSESCTIGDDGSVECVCPTRYEGPKCE; listed as Homo sapiens)
12.5 µg/mL: MIC A. hydrophila ([4]; 96-well plate, 37° C., 10 h) | MIC M. catarrhalis ([6]; 96-well plate, 37° C., 10 h) | MIC P. vulgaris ([8]; 96-well plate, 37° C., 10 h)
25 µg/mL: MIC E. coli BL21 ([7]; 96-well plate, 37° C., 10 h) | MIC K. pneumonia ([10]; 96-well plate, 37° C., 10 h)
50 µg/mL: MIC [1] | MIC E. cloacae ([2]; 96-well plate, 37° C., 10 h) | MIC P. aeruginosa ([3]; 96-well plate, 37° C., 10 h) | MIC C. diversus ([5]; 96-well plate, 37° C., 10 h) | MIC P. mirabilis ([9]; 96-well plate, 37° C., 10 h) | MIC S. marcescens ([11]; 96-well plate, 37° C., 10 h)

PRT1300 (VIDHCVPELNLCQHEAKCIPLDKGFSCECVPGYSGKLCE; listed as Homo sapiens)
25 µg/mL: MIC against E. cloacae [2, 13] | MIC against P. aeruginosa [3, 14]
12.5 µg/mL: MIC [1] | MIC against C. diversus [5, 16] | MIC against M. catarrhalis [6, 17] | MIC against P. vulgaris [8, 19] | MIC against P. mirabilis [9, 20] | MIC against K. pneumonia [10, 21] | MIC against S. marcescens [11, 22]
50 µg/mL: MIC against A. hydrophila [4, 15] | MIC against E. coli BL21 [7, 18]

PRT634 (DIDECQHRHLCAHGQCRNTEGSFQCVCDQGYRASGLGDHCE; listed as Homo sapiens)
25 µg/mL: MIC A. hydrophila ([4]; 96-well plate, 37° C., 10 h) | MIC M. catarrhalis ([6]; 96-well plate, 37° C., 10 h) | MIC E. coli BL21 ([7]; 96-well plate, 37° C., 10 h) | MIC P. mirabilis ([9]; 96-well plate, 37° C., 10 h) | MIC K. pneumonia ([10]; 96-well plate, 37° C., 10 h) | MIC S. marcescens ([11]; 96-well plate, 37° C., 10 h)
12.5 µg/mL: MIC [1] | MIC E. cloacae ([2]; 96-well plate, 37° C., 10 h) | MIC C. diversus ([5]; 96-well plate, 37° C., 10 h) | MIC P. vulgaris ([8]; 96-well plate, 37° C., 10 h)
50 µg/mL: MIC P. aeruginosa ([3]; 96-well plate, 37° C., 10 h)

PRT1380 (SQRSCPRGCSQRGRCEGGRCVCDPGYTGDDC; listed as Homo sapiens)
25 µg/mL: MIC [1]
50 µg/mL: MIC against A. hydrophila ([4]; Aeromonas hydrophila, 10 h cultivation at 37° C.) | MIC against M. catarrhalis ([6]; Moraxella catarrhalis, 10 h cultivation at 37° C.) | MIC against E. coli BL21 ([7]; E. coli BL21, 10 h cultivation at 37° C.) | MIC against P. vulgaris ([8]; Proteus vulgaris, 10 h cultivation at 37° C.) | MIC against P. mirabilis ([9]; Proteus mirabilis, 10 h cultivation at 37° C.) | MIC against K. pneumonia ([10]; Klebsiella pneumonia, 10 h cultivation at 37° C.) | MIC against S. marcescens ([11]; Serratia marcescens, 10 h cultivation at 37° C.)
12.5 µg/mL: MIC against E. cloacae ([2]; Enterobacter cloacae, 10 h cultivation at 37° C.) | MIC against P. aeruginosa ([3]; Pseudomonas aeruginosa, 10 h cultivation at 37° C.) | MIC against C. diversus ([5]; Citrobacter diversus, 10 h cultivation at 37° C.)
